# Experimental data: paper PMC12040169 (PLOS Biology, 2025)
# Experiment: in vitro
# Conditions: human, hela cells, % viability
row,Compound,"viability at 28.5 h, 10 µM [%]"
1,CCOc1cc(C2Nc3ccccc3NC3=C2C(=O)C(C(=O)OC)C(C)C3)ccc1OC(C)C (centres unmarked) [CBK268456],111
2,O=C1c2ccc(-c3nc4ccc(Cl)cc4c(=O)o3)cc2C(=O)N1Cc1cccnc1 [CBK268460],104
3,O=C1c2ccccc2C(=O)N1Cc1nc2ccccc2c(=O)n1CCCN1CCOCC1 [CBK268463],96.1
4,CC(C)C(CCC(=O)Nc1ccc([N+](=O)[O-])cc1O)C(=O)O (centres unmarked) [CBK268464],102
5,Cc1nn(CC(=O)Nc2ccc3c(c2)nc(CN2CCCC2)n3C)c(=O)c2ccccc12 [CBK268465],97.5
6,CN1C(CC(O)c2ccccc2)CCCC1C(=O)c1ccccc1 (centres unmarked) [CBK268467C],98.8
7,O=C(CN1CCOCC1)Nc1ccc(S(=O)(=O)N2CCCC2)cc1 [CBK268468],103
8,CCOC(=O)CC(=O)CSc1nc2nc(C)cc(C)n2n1 [CBK268469],99.8
9,COc1cc(NC(=O)C(C)Oc2cccc(Cl)c2)c(C(=O)O)cc1OC (centres unmarked) [CBK268470],92.4
10,O=C1c2ccccc2C(=O)N1Cc1nc2ccccc2c(=O)n1CCN1CCOCC1 [CBK268472],105
11,Cn1c(CN2CCN(C(=O)c3ccco3)CC2)nc2cc([N+](=O)[O-])ccc21 [CBK268473],108
12,CCc1nnc2sc(-c3ccc(C)c(NC(=O)c4ccc(N5CCCCC5)c([N+](=O)[O-])c4)c3)nn12 [CBK268476],91.5
13,O=C1COc2ccc(S(=O)(=O)NCCOc3ccccc3)cc2N1 [CBK268480],95.9
14,S=C(NNC(=S)Nc1ccc(Cl)c(Cl)c1)Nc1cccnc1 [CBK268483],96.2
15,O=[N+]([O-])c1cccc(S(=O)(=O)NCCOc2cccc3cccnc23)c1 [CBK268489],98.6
16,CS(=O)(=O)N1CCCC(C(=O)Nc2ccc(S(N)(=O)=O)cc2)C1 (centres unmarked) [CBK268490],83
17,CCCC12CN3CC(C)(CN(C1)C31C(=O)Nc3ccc(C)cc31)C2=O (centres unmarked) [CBK268491],113
18,Cc1ccc(CSCCNS(=O)(=O)c2ccc([N+](=O)[O-])cc2)cc1 [CBK268496],108
19,O=C(CSCc1c(F)cccc1Cl)Nc1ccc(S(=O)(=O)N2CCCCCC2)cc1 [CBK268497],100
20,O=C(O)c1ccc(-n2nnnc2Sc2nc([N+](=O)[O-])nn2Cc2ccccc2F)cc1 [CBK268498],91.5
21,Clc1ccc(-n2c(COc3cccc4cccnc34)nnc2SCc2ccccc2)cc1 [CBK268502],103
22,O=[N+]([O-])c1nn(-c2ccccc2)[n+]([O-])c1Nc1ccc(Br)cc1 [CBK268504],98.7

row,Compound,"viability at 28.5 h, 10 µM [%]"
1,O=C(Cc1cccs1)Nc1cccc(C(=O)Nc2cccc(C(=O)O)c2)c1 [CBK268509],105
2,CC(C)(CSc1ccccn1)NS(=O)(=O)c1ccccc1 [CBK268513],102
3,Cc1c(C(N)=O)sc2ncn(CC(=O)NCCc3ccccc3)c(=O)c12 [CBK268514],90.4
4,CCn1c(SCC(=O)Nc2ccc(C(C)=O)cc2)nnc1-c1cc(Br)ccc1O [CBK268515],89.2
5,O=C(COc1ccc(S(=O)(=O)N2CCCCC2)cc1)NCc1ccccn1 [CBK268517],91.6
6,CN(C)S(=O)(=O)c1ccc2[nH]cc(CCN)c2c1 [CBK268522C],99.7
7,O=C(O)CC(C(=O)O)c1ccc(Cl)cc1Cl (centres unmarked) [CBK268523],95.5
8,Cc1ccc(S(=O)(=O)N(C)CC(=O)NCc2nc(-c3ccccc3)no2)cc1 [CBK268524],93.4
9,COc1ccc(S(=O)(=O)N(CC(=O)N2CCc3ccccc3C2)C2CCCCC2)cc1Cl [CBK268525],97.9
10,Cc1nn2c(COc3ccc(NC(=O)C4CCCCC4)cc3)nnc2c2ccccc12 [CBK268528],104
11,O=C(O)CC(C(=O)O)c1ccc(F)cc1 (centres unmarked) [CBK268531],87.6
12,N#Cc1ccccc1Cn1cc(C(=O)COc2ccccc2)c2ccccc21 [CBK268532],90.5
13,Cn1c(Cc2cccs2)nnc1SCC(=O)c1c[nH]c2ccccc12 [CBK268534],102
14,CCOc1ccccc1OCc1nn2c(-c3ccncc3)nnc2s1 [CBK268535],111
15,O=C(Nc1cnn(C23CC4CC(CC(C4)C2)C3)c1)c1cnn2c(C(F)(F)F)cc(-c3ccco3)nc12 [CBK268538],52.4
16,CS(=O)(=O)N(CC(=O)Nc1ccccc1-c1ccccc1)c1ccc(F)c(Cl)c1 [CBK268539],91.2
17,Cn1c(NCc2ccccn2)nc2ccccc21 [CBK268544],110
18,COc1ccc(CNc2nc(-c3ccc(C)cc3)nn2C(=O)c2cccc([N+](=O)[O-])c2)cc1 [CBK268546],67.9
19,O=C(COc1ccc(S(=O)(=O)N2CCCCC2)cc1)N1CCC(Cc2ccccc2)CC1 [CBK268547],108
20,O=C(CSCc1ccc([N+](=O)[O-])cc1)Nc1c[nH]c(=O)[nH]c1=O [CBK268549],98.5
21,Fc1ccccc1COc1cccc(CNCc2ccccn2)c1 [CBK268552C],101
22,COC(=O)c1ccc2c(=O)n(CCN3CCOCC3)c(=S)[nH]c2c1 [CBK268553],69

row,Compound,"viability at 28.5 h, 10 µM [%]"
1,Cc1ccc(S(=O)(=O)NCc2ccccc2)c(C)c1NS(C)(=O)=O [CBK268555],90.2
2,c1cnc2c(OCc3nc4ccccc4[nH]3)cccc2c1 [CBK268556],74.6
3,O=C(COc1ccc(S(=O)(=O)N2CCCC2)cc1Cl)Nc1ccc2c(c1)OCCO2 [CBK268559],116
4,CC(Oc1ccc(Cl)cc1Cl)C(=O)Nc1ccc(N2CCN(C)CC2)c(Cl)c1 (centres unmarked) [CBK268563],85
5,Cc1cccc(C(=O)Nc2ccccc2C(=O)N2CCN(C)CC2)c1 [CBK268565],89
6,O=C(O)c1cccc(C(=O)Nc2cccc(NC(=O)C3CCCO3)c2)c1 (centres unmarked) [CBK268566],108
7,Cc1ccc(SC(C)C(=O)O/N=C(\N)c2ccccn2)cc1 (centres unmarked) [CBK268567],111
8,Cc1ccccc1OC(C)C(=O)NCCCc1ccccc1 (centres unmarked) [CBK268571],88.3
9,CCOc1ccccc1NC(=O)c1ccc(CS(=O)(=O)c2ccc(C)cc2)cc1 [CBK268572],95.1
10,O=C(CCN1C(=O)c2cc(Cl)c(Cl)cc2C1=O)Nc1cccc(-c2cnc3ccccc3n2)c1 [CBK268575],114
11,Cc1ccc(NS(=O)(=O)c2cc(C(=O)N3CCN(C)CC3)ccc2C)cc1 [CBK268577],92.5
12,O=C(Nn1cnnc1)c1ccccc1CCc1ccccc1 [CBK268578],87.7
13,COc1cc(C)c(NC(=O)C(=S)NCc2ccco2)cc1C [CBK268582],103
14,COc1ccc(S(=O)(=O)N(CC(=O)Nc2ccc3c(c2)OCCO3)c2ccc(F)cc2)cc1 [CBK268584],114
15,Oc1c(C(Nc2cccnc2)c2ccccc2OCc2ccccc2)ccc2cccnc12 (centres unmarked) [CBK268587],71.5
16,O=C(NCc1ccc2c(c1)OCO2)c1ccccc1CCc1ccccc1 [CBK268591],107
17,CS(=O)(=O)Nc1ccc(C(=O)Nc2ccc(S(=O)(=O)N3CCCC3)cc2)cc1 [CBK268592],116
18,COc1ccc([N+](=O)[O-])cc1NC(=O)c1cc(Cl)c(OC)c(Cl)c1 [CBK268594],82.6
19,CN(Cc1nc(-c2ccncc2)no1)S(=O)(=O)c1ccc(Br)cc1 [CBK268598],94.6
20,Cc1cccc(C(=O)Nc2cccc(OCC(=O)O)c2)c1 [CBK268599],114
21,Cc1cc(OCc2nnc(SCC(=O)Nc3ccc(I)cc3)n2C)ccc1Cl [CBK268600],113
22,Cc1cc(C)cc(OCc2nnc(SCC(=O)Nc3c(F)cc(F)cc3Br)n2C)c1 [CBK268604],83.6

row,Compound,"viability at 28.5 h, 10 µM [%]"
1,O=C(O)Cc1ccc(NC(=O)c2cccc(NC(=O)c3ccco3)c2)cc1 [CBK268606],96.7
2,CCn1c(SCc2nc(-c3cccs3)no2)nnc1-c1c[nH]c2ccccc12 [CBK268607],104
3,CCn1c(SCC(=O)Nc2c(Cl)cc(Cl)cc2Cl)nnc1-c1ccccc1F [CBK268609],102
4,Cc1ccc(SC(C)C(=O)Nc2cc(Cl)ccc2O)cc1 (centres unmarked) [CBK268610],87.9
5,O=C(O)c1ccc(C(=O)Nc2cccc(NC(=O)C3CCCO3)c2)cc1 (centres unmarked) [CBK268613],105
6,Cc1cc(Cl)cc(Br)c1OCCNCCN1CCOCC1 [CBK268615G],111
7,CN(CC(=O)O/N=C(\N)c1ccccn1)S(=O)(=O)c1ccc(Br)cc1 [CBK268617],96.9
8,CN(CC(=O)Nc1nnc[nH]1)S(=O)(=O)c1ccc(Br)cc1 [CBK268618],91.1
9,O=C(c1ccccc1CCc1ccccc1)N1CCN(Cc2ccc3c(c2)OCO3)CC1 [CBK268623],120
10,Cc1ccc(SC(C)C(=O)NCCCN2CCOCC2)cc1 (centres unmarked) [CBK268624],88.5
11,COc1ccccc1C(=O)Nc1ccccc1C(=O)Nc1ccc(C(=O)O)cc1 [CBK268625],94.7
12,CC(C)(C)c1ccc(C(=O)Nc2ccccc2C(=O)Nc2ccc(C(=O)O)cc2)cc1 [CBK268626],89.1
13,Cc1ccccc1OC(C)C(=O)NCCCN1CCOCC1 (centres unmarked) [CBK268628],112
14,COc1ccc(NC(=O)c2ccccc2CCc2ccccc2)c([N+](=O)[O-])c1 [CBK268632],97
15,CC(C)(C)C1CCc2c(sc(NC(=S)NC(=O)COc3ccccc3)c2C(N)=O)C1 (centres unmarked) [CBK268634],107
16,O=C(Nc1cccc(O)c1)c1ccc2c(c1)C(=O)N(Cc1ccco1)C2=O [CBK268640],95.6
17,COCCN1C(=O)c2ccc(C(=O)c3ccc4c(c3)C(=O)N(CCOC)C4=O)cc2C1=O [CBK268641],113
18,O=C(Nc1ccccc1-c1nc2ccccc2s1)c1sc2cc(Cl)ccc2c1Cl [CBK268642],88.5
19,Cc1cccnc1NC(=O)C(C)Oc1ccccc1 (centres unmarked) [CBK268643],90.2
20,COc1ccc(-c2noc(CSc3nnc(-c4c[nH]c5ccccc45)n3C)n2)cc1OC [CBK268644],88.8
